# From the kinase profiling compilation of Christmann-Franck et al. (2016)
# Assays:
# Assay in all cases: KINOMEscan competition binding
# [1] = target: TAOK1 (human) (UniProt Q7L7X3)
# [2] = target: YSK4 (human) (UniProt Q56UN5)
# [3] = target: CaMK1 (human) (UniProt Q14012)
# [4] = target: RIOK2 (human) (UniProt Q9BVS4)
# [5] = target: FLT3 (human), P36888 [N841I]
# [6] = target: EPHA8 (human) (UniProt P29322)
# [7] = target: PIK3CA (human), P42336 [E545K]
# [8] = target: GAK (human) (UniProt O14976)
# [9] = target: ROCK2 (human) (UniProt O75116)
# [10] = target: PIK3CA (human), P42336 [Q546K]
# [11] = target: MERTK (human) (UniProt Q12866)
# Sequence of MERTK (human) (Q12866 whole entry, looked up): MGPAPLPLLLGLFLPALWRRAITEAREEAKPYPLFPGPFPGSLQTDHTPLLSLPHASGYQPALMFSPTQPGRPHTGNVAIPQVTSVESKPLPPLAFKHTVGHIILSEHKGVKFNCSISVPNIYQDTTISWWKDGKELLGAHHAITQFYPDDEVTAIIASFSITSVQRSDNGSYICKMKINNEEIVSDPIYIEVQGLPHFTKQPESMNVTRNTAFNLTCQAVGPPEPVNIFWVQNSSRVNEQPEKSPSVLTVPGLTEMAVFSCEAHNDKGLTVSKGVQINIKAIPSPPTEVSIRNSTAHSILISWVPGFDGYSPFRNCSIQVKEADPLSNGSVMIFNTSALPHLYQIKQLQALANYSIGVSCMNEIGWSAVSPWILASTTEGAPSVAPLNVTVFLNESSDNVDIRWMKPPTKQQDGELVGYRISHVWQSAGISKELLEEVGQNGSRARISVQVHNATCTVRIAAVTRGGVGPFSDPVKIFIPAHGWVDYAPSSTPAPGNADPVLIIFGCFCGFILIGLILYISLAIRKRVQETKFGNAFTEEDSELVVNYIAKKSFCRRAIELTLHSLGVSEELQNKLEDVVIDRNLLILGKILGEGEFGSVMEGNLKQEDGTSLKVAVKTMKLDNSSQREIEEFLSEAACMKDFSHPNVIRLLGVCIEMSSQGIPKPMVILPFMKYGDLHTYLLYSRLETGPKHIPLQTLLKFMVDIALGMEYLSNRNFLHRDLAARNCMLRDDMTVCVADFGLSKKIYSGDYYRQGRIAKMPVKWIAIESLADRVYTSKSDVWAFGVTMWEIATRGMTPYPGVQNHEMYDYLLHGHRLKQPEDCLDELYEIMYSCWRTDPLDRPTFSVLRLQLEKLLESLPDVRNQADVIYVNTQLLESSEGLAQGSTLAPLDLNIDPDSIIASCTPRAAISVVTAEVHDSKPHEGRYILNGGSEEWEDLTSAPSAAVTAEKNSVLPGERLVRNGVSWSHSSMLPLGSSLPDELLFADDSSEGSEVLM
# [12] = target: PIK3CA (human), P42336 [C420R]
# Sequence of PIK3CA (human), P42336 [C420R] (P42336 whole entry C420R, looked up): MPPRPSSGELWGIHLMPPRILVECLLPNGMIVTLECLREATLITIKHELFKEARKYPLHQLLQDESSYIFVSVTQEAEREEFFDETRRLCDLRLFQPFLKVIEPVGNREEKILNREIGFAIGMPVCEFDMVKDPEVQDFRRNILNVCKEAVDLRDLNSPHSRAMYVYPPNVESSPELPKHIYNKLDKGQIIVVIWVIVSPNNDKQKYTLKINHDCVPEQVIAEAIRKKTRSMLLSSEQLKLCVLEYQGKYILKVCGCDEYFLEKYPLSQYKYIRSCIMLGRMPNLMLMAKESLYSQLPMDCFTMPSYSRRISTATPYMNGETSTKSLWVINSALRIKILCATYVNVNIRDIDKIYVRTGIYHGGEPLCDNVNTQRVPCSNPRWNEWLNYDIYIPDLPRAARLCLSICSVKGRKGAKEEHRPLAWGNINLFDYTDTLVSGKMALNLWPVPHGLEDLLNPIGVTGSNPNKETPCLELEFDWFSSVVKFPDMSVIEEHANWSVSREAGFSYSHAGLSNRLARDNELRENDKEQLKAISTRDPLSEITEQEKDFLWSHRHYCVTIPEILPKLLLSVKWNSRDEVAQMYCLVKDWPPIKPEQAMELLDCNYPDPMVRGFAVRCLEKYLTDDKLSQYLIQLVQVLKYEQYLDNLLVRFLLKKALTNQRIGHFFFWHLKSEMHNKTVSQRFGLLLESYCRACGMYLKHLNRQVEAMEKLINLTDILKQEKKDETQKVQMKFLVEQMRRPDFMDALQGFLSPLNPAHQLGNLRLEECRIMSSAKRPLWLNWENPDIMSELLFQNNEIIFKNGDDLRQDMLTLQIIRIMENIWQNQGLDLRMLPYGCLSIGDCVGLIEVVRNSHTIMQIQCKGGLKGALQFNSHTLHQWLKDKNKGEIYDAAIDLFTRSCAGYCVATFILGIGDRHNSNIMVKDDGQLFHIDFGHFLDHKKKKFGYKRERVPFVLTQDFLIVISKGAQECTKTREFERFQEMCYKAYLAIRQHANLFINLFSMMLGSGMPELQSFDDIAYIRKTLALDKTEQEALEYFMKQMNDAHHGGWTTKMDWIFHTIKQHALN
# [13] = target: IRAK3 (human) (UniProt Q9Y616)
# [14] = target: MAP3K2 (human) (UniProt Q9Y2U5)
# [15] = target: EPHA3 (human) (UniProt P29320)
# [16] = target: ABL1 (human), P00519 [E255K]
# [17] = target: PIK3CA (human), P42336 [E542K]
# Sequence of PIK3CA (human), P42336 [E542K] (P42336 whole entry E542K, looked up): as the sequence (P42336 whole entry C420R, looked up) above, with R420C, E542K counted along it
# [18] = target: MAPK8 (human) (UniProt P45983)
# [19] = target: ABL1 (human), P00519 [Q252H]
# [20] = target: HUNK (human) (UniProt P57058)
# [21] = target: NEK5 (human) (UniProt Q6P3R8)
# [22] = target: MAP3K3 (human) (UniProt Q99759)
# Sequence of MAP3K3 (human) (Q99759 whole entry, looked up): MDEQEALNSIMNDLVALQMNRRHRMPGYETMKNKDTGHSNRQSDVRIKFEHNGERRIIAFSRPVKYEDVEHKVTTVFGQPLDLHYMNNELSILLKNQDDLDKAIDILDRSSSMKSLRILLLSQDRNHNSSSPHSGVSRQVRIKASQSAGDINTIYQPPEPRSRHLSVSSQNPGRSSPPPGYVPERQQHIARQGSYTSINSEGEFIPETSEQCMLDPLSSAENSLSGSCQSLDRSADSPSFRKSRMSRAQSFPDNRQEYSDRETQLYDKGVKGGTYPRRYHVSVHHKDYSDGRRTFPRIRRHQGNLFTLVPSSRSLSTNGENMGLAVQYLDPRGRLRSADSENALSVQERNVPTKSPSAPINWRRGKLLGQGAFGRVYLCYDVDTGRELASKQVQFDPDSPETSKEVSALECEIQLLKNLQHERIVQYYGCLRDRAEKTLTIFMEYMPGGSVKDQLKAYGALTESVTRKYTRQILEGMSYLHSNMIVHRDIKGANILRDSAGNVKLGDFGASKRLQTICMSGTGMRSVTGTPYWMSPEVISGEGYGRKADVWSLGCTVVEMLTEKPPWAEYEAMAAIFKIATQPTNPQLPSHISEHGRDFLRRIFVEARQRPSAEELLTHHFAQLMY
# [23] = target: SIK2 (human) (UniProt Q9H0K1)
# [24] = target: NTRK2 (human) (UniProt Q16620)
# [25] = target: CDK15 (human) (UniProt Q96Q40)
# Sequence of YSK4 (human) (Q56UN5 whole entry, looked up): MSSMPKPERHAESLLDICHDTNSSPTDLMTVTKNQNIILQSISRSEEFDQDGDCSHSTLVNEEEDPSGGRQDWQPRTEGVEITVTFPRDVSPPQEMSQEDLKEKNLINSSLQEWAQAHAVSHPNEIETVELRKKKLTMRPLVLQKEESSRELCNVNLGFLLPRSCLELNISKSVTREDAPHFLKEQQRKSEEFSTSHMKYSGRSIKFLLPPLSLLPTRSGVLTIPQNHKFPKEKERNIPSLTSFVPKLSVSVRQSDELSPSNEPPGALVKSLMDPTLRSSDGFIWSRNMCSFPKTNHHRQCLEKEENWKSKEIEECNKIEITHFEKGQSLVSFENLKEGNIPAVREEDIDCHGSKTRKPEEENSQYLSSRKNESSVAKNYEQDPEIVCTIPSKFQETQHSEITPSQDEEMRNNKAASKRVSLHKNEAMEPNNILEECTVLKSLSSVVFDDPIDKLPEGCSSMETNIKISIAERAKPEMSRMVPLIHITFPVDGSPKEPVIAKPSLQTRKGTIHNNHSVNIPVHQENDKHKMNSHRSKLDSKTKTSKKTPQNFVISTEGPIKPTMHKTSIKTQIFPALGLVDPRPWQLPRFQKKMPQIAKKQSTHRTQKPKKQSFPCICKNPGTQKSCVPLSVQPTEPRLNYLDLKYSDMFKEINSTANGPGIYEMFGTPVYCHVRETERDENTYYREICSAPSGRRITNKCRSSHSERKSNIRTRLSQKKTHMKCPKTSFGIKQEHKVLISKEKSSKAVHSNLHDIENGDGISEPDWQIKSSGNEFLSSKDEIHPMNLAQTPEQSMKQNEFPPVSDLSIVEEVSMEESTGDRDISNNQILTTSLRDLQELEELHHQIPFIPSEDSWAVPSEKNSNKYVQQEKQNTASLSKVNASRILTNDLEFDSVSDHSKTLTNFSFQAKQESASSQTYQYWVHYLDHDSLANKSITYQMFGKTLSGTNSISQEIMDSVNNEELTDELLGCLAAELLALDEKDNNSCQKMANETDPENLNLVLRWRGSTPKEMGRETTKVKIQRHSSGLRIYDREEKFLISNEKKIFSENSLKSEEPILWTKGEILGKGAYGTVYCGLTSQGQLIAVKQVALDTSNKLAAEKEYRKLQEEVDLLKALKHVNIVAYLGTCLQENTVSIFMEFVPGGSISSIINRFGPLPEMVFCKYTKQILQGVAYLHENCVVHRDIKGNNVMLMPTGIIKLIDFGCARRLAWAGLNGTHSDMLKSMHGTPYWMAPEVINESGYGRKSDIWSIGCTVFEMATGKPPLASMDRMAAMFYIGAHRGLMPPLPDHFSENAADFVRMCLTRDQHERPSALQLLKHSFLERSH
# Sequence of TAOK1 (human) (Q7L7X3 whole entry, looked up): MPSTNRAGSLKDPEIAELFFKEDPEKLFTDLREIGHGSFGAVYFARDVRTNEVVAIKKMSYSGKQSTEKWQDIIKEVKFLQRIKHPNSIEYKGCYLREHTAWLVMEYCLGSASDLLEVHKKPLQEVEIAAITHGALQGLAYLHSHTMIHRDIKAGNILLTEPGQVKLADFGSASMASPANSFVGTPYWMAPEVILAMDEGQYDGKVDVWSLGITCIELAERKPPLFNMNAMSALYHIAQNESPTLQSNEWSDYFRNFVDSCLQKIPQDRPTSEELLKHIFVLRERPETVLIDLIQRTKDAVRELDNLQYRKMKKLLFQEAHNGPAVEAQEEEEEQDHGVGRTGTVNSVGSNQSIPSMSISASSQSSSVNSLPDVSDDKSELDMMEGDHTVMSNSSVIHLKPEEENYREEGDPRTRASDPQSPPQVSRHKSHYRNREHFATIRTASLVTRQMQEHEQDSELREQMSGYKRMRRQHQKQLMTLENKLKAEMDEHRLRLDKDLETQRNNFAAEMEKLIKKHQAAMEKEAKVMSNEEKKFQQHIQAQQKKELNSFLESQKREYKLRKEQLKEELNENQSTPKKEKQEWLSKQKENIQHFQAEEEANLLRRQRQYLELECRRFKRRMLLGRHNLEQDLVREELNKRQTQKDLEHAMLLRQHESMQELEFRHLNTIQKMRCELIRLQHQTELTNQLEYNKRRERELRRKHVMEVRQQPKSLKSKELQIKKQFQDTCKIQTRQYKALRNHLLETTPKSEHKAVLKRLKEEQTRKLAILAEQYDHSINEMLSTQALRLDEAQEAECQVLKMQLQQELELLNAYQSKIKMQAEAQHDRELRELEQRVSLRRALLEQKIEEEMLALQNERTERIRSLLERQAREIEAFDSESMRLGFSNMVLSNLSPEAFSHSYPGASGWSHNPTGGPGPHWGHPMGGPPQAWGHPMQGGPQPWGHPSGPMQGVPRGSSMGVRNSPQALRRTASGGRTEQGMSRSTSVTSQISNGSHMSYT
# Sequence of PIK3CA (human), P42336 [E545K] (P42336 whole entry E545K, looked up): as the sequence (P42336 whole entry C420R, looked up) above, with R420C, E545K counted along it
structure (smiles),measurement,setting,value
COc1cc2ncnc(Oc3cccc(NC(=O)Nc4cc(C(C)(C)C(F)(F)F)on4)c3)c2cc1OC,Kd,[1],2100 nM
same,Kd,[2],3.7 nM
same,Kd,[3],8800 nM
same,Kd,[4],36000 nM
same,Kd,[5],20 nM
same,Kd,[6],14 nM
same,Kd,[7],29000 nM
same,Kd,[8],2300 nM
same,Kd,[9],37000 nM
same,Kd,[10],28000 nM
same,Kd,[11],1300 nM
same,Kd,[12],30000 nM
same,Kd,[13],1400 nM
same,Kd,[14],13000 nM
same,Kd,[15],36 nM
same,Kd,[16],6.5 nM
same,Kd,[17],27000 nM
same,Kd,[18],100 nM
same,Kd,[19],9.9 nM
same,Kd,[20],12000 nM
same,Kd,[21],28000 nM
same,Kd,[22],11000 nM
same,Kd,[23],24000 nM
same,Kd,[24],1000 nM
same,Kd,[25],430 nM
